Measured values from US8741843B2, “Compositions and methods for inducing angiogenesis” (priority 2006, dated 2014).
Entries after “also recorded” stand apart in the source; their conditions may differ.

Legend:
[1] = test system: endothelial cells (HUVEC); assay: Binding of biotinylated ADOPep to endothelial cells by FACS; parameters: species or system human
Procedure: FIG. 3 is a FACS analysis depicting the binding (in percentages) of biotinylated ADOPep1 (ADOPep1^Biot), an ADAM15 derived peptide (SEQ ID NO:2), to endothelial cells (EC) under normoxia. Biotinylated ADOPep1 at 0.05, 0.5 and 5 microgram/ml (μg/ml) were added to endothelial cells.
FIG. 4 is a FACS analysis depicting the binding (in total counts) of Biotinylated ADOPep1 to endothelial cells under normoxia and hypoxia conditions. […] X axis—Intensity of binding.
Human umbilical endothelial cells (HUVEC) were harvested by trypsin and 100,000 cells per sample were suspended in PBS+5% FCS+0.1% Na azide. Endothelial cells were either exposed for 5 hours to hypoxia or remained under normoxia conditions. Cells were stained for 2 hours on ice in dark with 0.05, 0.5, 5 μg/100,000 cells biotinylated ADOPeps. The cells were then washed twice with PBS, following which the cells were stained for 30 minutes with FITC-labeled Streptavidin (Jackson ImmunoResearch Laboratories, PA, USA). After washing, samples were analyzed using a fluorescence activated cell sorter (FACScan Beckton Dickinson, Calif., USA).

[2] = test system: GRP78 receptor on endothelial cells; assay: Competitive binding of ADOPeps to GRP78 (anti-GRP78 antibody ELISA on endothelial cells); parameters: species or system human; settings: summary of 4 experiments
Procedure: FIG. 19 is a graph depicting inhibition of binding (in percentages) of anti-GRP78 antibody to endothelial cells by increasing concentrations of ADOPep1, 2, and 3 peptides. Endothelial cells were incubated for 2 hours with increasing concentrations of ADOPeps, following which the cells were incubated for another 1 hour with the 2 μg/ml of anti-GRP78 antibody and the amount of bound antibody on EC was detected using an ELISA reader.
Endothelial cells (20,000 per well) were seeded in 96 well plates for 24 hours in the presence of the complete medium. Plates were washed with PBS over night and rehydrated with PBS, 0.1% Na Azide and 5% FCS. ADOPep1, ADOPep2 and ADOPep3 were added to washed plates for 2 hours at room temperature at concentrations of 0.01, 0.1 and 1 microgram per ml. Anti-GRP78 antibody (goat polyclona IgG, Santa Cruz Biotechnology, Calif., USA) was added to the plates for 1 hour at room temperature at a concentration of 2 micrograms/ml per well. After washing, bound anti-GRP78 antibody was detected by incubation with anti-goat IgG Peroxidase conjugated (Jackson Immuneresearch Laboratories, PA, USA). After 5 washes with PBS-0.1% Tween 20, 100 μl/well of TMB+ Substrate-Chromogen (DAKOCytomation, CA, USA) was added for a maximum of 30 minutes. Reaction was stopped with 1N HCl. Color developed was determined by an ELISA reader at 450 nm.

[3] = test system: mouse ischemic hind limb; assay: Apoptotic cells in ischemic hind limb sections; type: in vivo; settings: 1 μg/mice, 7 days post ligation, vs PBS
Procedure: FIG. 22 is a bar graph depicting the number of apoptotic cells per field in ischemic hind limb treated with ADOPep1 as a function of days after ischemia induction. Mice were subjected to hind limb ligation and PBS or ADOpep1 injection as described in the description of FIG. 21, hereinabove, and the number of apoptotic cells per microscopical filed was determined in histological sections prepared from either ligated and ADopep or PBS treated hind limbs of mice sacrificed at 7, 14 or 21 days post ischemia induction or from normal non-ischemic hind limbs.

[4] = test system: endothelial cells; assay: Inhibition of binding of biotinylated ADOPep1 to endothelial cells by motif peptides; parameters: species or system human; settings: normoxia, peptides 0.01, 0.1 or 1 ng/ml, ADOPep1^Biot 2 μg/ml
Procedure: FIG. 23 is a graph depicting the inhibition of binding of ADOPep1^Biot (2 μg/ml) to endothelial cells by specific peptides corresponding to conserved motifs from the ADOPeps. Endothelial cells were incubated for 2 hours under normoxia conditions in the presence of increasing concentrations (0.01, 0.1 or 1 ng/ml) of peptides having the amino acid sequences corresponding to Motif A (HWRRP; SEQ ID NO:7), Motif B (HWRRA; SEQ ID NO:8), Motif C (AHLLP; SEQ ID NO:6) or non-biotinylated ADOPep1 (SEQ ID NO:2) and then were incubated for 1 hour with biotinylated ADOPep1 (2 μg/ml) and the binding of biotinylated ADOPep1 to endothelial cells was determined using HRP-streptavidin.

| Substance | binding to endothelial cells under hypoxia versus normoxia ([1]; 5 micrograms per 100,000 cells) | percent binding of biotinylated ADOPep1 to endothelial cells ([1]; hypoxia 5 hours, 5 μg/ml) | percent binding of biotinylated ADOPep1 to endothelial cells ([1]; normoxia, maximal at 5 μg/ml) | inhibition of binding of anti-GRP78 antibody to EC (in words) [2] | number of apoptotic cells per field [3] | number of apoptotic cells per field ([3]; listed as ADoPep1) | inhibition of the binding of ADOPep1^Biot to endothelial cells [4] |
| --- | --- | --- | --- | --- | --- | --- | --- |
| HWRRAHLLPRLP [ADOPep1, ADAM15 derived peptide, amino acids 286-297 of the metalloprotease domain] | increase in binding; also recorded: increased under hypoxia | about 85% | about 62% | some degree of inhibition | significant decrease | dramatically decreased |  |
| HWRRP [Motif A, 5 amino acid motif peptide] |  |  |  |  |  |  | significant inhibition |
